Results from PubChem BioAssay (NCI).
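Results reflect a 48-hour exposure of cells in 96-well plates to compound at five concentrations. GI50 marks 50% less growth. Definition used: TGI = concentration required for complete inhibition of growth.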

What was measured:
Test in all cases: inhibition of tumour cell growth, NCI panel, 48 h
DMS 273 small cell lung = tested on: DMS 273 small cell lung
DLD-1 colon = tested on: DLD-1 colon
NCI-H522 lung = tested on: NCI-H522 lung
786-0 renal = tested on: 786-0 renal
OVCAR-5 ovarian = tested on: OVCAR-5 ovarian
DMS 114 small cell lung = tested on: DMS 114 small cell lung
RPMI-8226 leukemia = tested on: RPMI-8226 leukemia
SR leukemia = tested on: SR leukemia
MDA-MB-435 = tested on: MDA-MB-435
MDA-MB-231 breast = tested on: MDA-MB-231 breast

Structure (SMILES)	TGI (DMS 273 small cell lung) [µM]	TGI (DLD-1 colon) [µM]	TGI (NCI-H522 lung) [µM]	TGI (786-0 renal) [µM]	TGI (OVCAR-5 ovarian) [µM]	TGI (DMS 114 small cell lung) [µM]	TGI (RPMI-8226 leukemia) [µM]	TGI (SR leukemia) [µM]	GI50 (DMS 273 small cell lung) [nM]	GI50 (DLD-1 colon) [nM]	GI50 (786-0 renal) [µM]	GI50 (OVCAR-5 ovarian) [nM]	GI50 (DMS 114 small cell lung) [nM]	GI50 (RPMI-8226 leukemia) [nM]	GI50 (SR leukemia) [nM]	TGI (MDA-MB-435) [µM]	TGI (MDA-MB-231 breast) [µM]	GI50 (NCI-H522 lung) [µM]
COC(=O)c1cccc2cccc(C(=O)Nc3ccc(Cl)cc3)c12	22.2	> 62.5	> 91	> 100	> 100	> 100	33.7	50.8										
O=S1(=O)OCCOS(=O)(=O)C1Cl	> 100	> 100	> 100	> 100		> 100	> 100	> 100										
CC(C(=O)n1c2ccccc2c2ccccc21)N(c1ccccc1)c1ccccc1 (stereo not drawn)	34.1	43	6.48	30.2	33.6	32.5	36.2	27.7										
OCCNCCOc1ccc(/C(=C(/Cl)c2ccccc2)c2ccccc2)cc1		27.4	28.8	22.2	28.3	29.6	17.3	12.5										
COc1cc(C2C(C(=O)Nc3cc(F)c(F)cc3F)=C(C)NC(C)=C2C(=O)Nc2cc(F)c(F)cc2F)ccc1O		> 100	36.3	> 100	59.9	41.8	47.3											
Cc1cc(C(C)(C)C)cc(Cc2cc(C(C)(C)C)cc(Cc3cc(C(C)(C)C)cc(C)c3O)c2O)c1O	22.8	18.5	13.2	18.6	31.3	12.1	6.44											
[F][Sn]([F])([c]1ccccc1)[c]1ccccc1	5.26	3.47		2.98	3.69	5.8	3.79	3.81	2170	1880	1.57	1510	2000	1110	1180			
Cc1cccc(C(C)C)c1NC(=O)C(=O)C(C(=O)c1ccccc1F)C1OC(=O)c2ccccc21 (stereo not drawn)	44.3	30.8	33.6	36.6	99.9	36.1	28.5											
CC1=C(C(=O)Nc2ccccc2)C(c2ccc(C3C(C(=O)Nc4ccccc4)=C(C)NC(C)=C3C(=O)Nc3ccccc3)cc2)C(C(=O)Nc2ccccc2)=C(C)N1	7.24	8.15	3.14	8.92	17.6	17.8	13.8	5.41								5.83	13.4	
CC(=O)OCCOCNC(=S)N/N=C/c1ccc(Br)s1	> 100	> 100	> 100	> 100	> 100	> 100	> 100	> 100										
COc1cc(C(=O)C/C(CCC(=O)Nc2ccc(Cl)cc2Cl)=N/NC(=O)C(=O)NN)ccc1O		> 100	> 100	> 100	> 100	> 100												
CC1=C(c2cc(C(=O)Nc3ccc(Cl)cc3)nc(=S)[nH]2)Sc2ccccc2N1	> 100	> 100	> 100	> 100	> 100	> 100												
c1ccc(CSc2nc3ccccc3nc2-c2cccs2)cc1	> 100	> 100	> 100	> 100	> 100	> 100	> 100											
N.N.NCCCCCCCCCN.O=C([O-])CC(=O)[O-].O=C([O-])CC(=O)[O-].[Pt+4].[Pt+4]	> 100	> 100	> 100	> 100	> 100		> 100		> 100000	> 100000	85.8	> 100000		> 100000				67.5
CCOc1ccccc1NC(=O)C(=O)Cc1nc2ccccc2s1	> 100	> 100	> 100	> 100		> 100		> 100										
O=C1C(=O)N(c2cc(Cl)ccc2Cl)C(=O)C(=O)C1c1nc2ccccc2o1	> 100	> 100	> 100	> 100	> 100	> 100	> 100											
CC(C)(C)OC(=O)N1N=NC2C1C1CC(OCc3ccccc3)(OCc3ccccc3)C2O1 (stereo not drawn)	> 100	> 100		> 100	> 100	40.6	63.6											
CC1CN1c1c(C(=O)/C=C/c2ccc(Cl)cc2)c(-c2ccccc2)nn(C)c1=O (stereo not drawn)	6.29	3.45	5.99	8.95	> 10	> 10												
O=c1nc(-c2ccccc2)cc(-c2ccccc2O)[nH]1	> 100	> 100	> 100	> 100	> 100	> 100	> 100	> 100										
Cc1cccc(C)c1NC(=O)C(=O)CC(=O)c1cccc([N+](=O)[O-])c1	> 100	> 100	> 100	> 100	> 100		> 100	> 100										
O=C(O)CN(c1ccccc1)S(=O)(=O)c1ccc([N+](=O)[O-])cc1	> 100	> 100	> 100	> 100	> 100		> 100											
OCC(O)CNc1ccnc2cc(Cl)ccc12 (stereo not drawn)		> 100	> 100	> 100	> 100	> 100	> 100	> 100										
C=CCn1c2c(sc1=S)C(S)N=CN2 (stereo not drawn)	> 100	> 100	> 100	> 100	> 100	> 100	> 100	> 100										
